The record followed here is patent US9346815B2, “5-chloro-2-difluoromethoxyphenyl pyrazolopyrimidine compounds, compositions and methods of use thereof” (Genentech, Inc., priority 2014, dated 2016).

Broadly, the pKi is the Ki on a negative log10 scale, so that one unit is a factor of ten. What is called EC50 is the concentration needed to bring the measured effect to its halfway point.

The structures appear in SMILES notation. pEC50, pKi: −log10 of the molar value. Read-outs that look alike come from different tables or passages of the source.

Assay [1] has as its target isolated recombinant JAK1 kinase domain (Homo sapiens (Human), UniProt P23458). Briefly: JAK1 enzyme assay (Caliper LabChip, peptide phosphorylation). It counts as biochemical. The settings on record: isolated recombinant JAK1 kinase domain, 25 μM ATP.
Assay [2] addresses isolated recombinant JAK2 kinase domain (Homo sapiens (Human), UniProt O60674). The assay is described as follows: JAK2 enzyme assay (Caliper LabChip, peptide phosphorylation). It counts as biochemical. Conditions: 25 μM ATP.
For assay [3], the system named is JAK1-dependent STAT6 phosphorylation downstream of IL-13 stimulation in TF-1 human erythroleukemia cells. The assay is described as follows: JAK1 pathway assay in TF-1 cells (IL-13-pSTAT6, MSD). The assay is classed as cell-based. Conditions: read-out: IL13-pSTAT6 EC50_TF-1. A digest of the protocol:
(§1)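 TF-1 cells starved of GM-CSF overnight, assayed serum-free; BEAS-2B cells in complete growth medium. Lysate pSTAT6 measured by MSD; EC50 derived.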

Assay [4] concerns JAK1-dependent STAT6 phosphorylation downstream of IL-13 stimulation in BEAS-2B human bronchial epithelial cells. The assay is described as follows: JAK1 pathway assay in BEAS-2B cells (IL-13-pSTAT6, MSD). It counts as cell-based. The settings on record: read-out: IL13-pSTAT6 EC50 (uM)_BEAS-2B. The procedure, abridged: as §1

isolated recombinant JAK1 kinase domain, sequence (P23458 875-1153): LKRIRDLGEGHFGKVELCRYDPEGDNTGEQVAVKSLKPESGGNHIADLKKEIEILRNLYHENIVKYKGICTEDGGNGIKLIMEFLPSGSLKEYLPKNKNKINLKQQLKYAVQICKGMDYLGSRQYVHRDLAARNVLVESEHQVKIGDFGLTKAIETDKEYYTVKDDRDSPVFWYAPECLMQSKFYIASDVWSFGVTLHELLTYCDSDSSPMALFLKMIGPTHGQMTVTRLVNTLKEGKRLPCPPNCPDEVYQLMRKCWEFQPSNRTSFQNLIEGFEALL
isolated recombinant JAK2 kinase domain, sequence (O60674 849-1124): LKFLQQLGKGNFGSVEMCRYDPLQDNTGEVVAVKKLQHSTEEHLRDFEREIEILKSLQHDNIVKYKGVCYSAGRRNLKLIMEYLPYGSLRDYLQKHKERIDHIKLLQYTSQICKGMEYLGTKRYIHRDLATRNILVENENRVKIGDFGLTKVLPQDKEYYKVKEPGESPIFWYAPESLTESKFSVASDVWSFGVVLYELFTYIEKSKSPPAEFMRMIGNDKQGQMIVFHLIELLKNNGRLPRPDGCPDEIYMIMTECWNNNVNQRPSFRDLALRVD

`O=C(Nc1cn(CC(=O)N2CCC(N(CCC(F)(F)F)Cc3ccccc3)CC2)nc1-c1cc(Cl)ccc1OC(F)F)c1cnn2cccnc12` [Example 118, N-[1-[2-[4-[benzyl(3,3,3-trifluoropropyl)amino]-1-piperidyl]-2-oxo-ethyl]-3-[5-chloro-2-(difluoromethoxy)phenyl]pyrazol-4-yl]pyrazolo[1,5-a]pyrimidine-3-carboxamide]: the pKi was 8.59 in assay [1] and 8.35 in assay [2]. In addition, the pEC50 in assay [3] (Homo sapiens, TF-1, TF-1 cells) was 7.00. Also, the EC50 in assay [4] is 0.303 µM.
Turning to `N=C(N)CCCn1cc(NC(=O)c2cnn3cccnc23)c(-c2cc(Cl)ccc2OC(F)F)n1` [Example 305, N-[1-(4-amino-4-imino-butyl)-3-[5-chloro-2-(difluoromethoxy)phenyl]pyrazol-4-yl]pyrazolo[1,5-a]pyrimidine-3-carboxamide], the pKi is 9.21 in assay [1] and 9.49 in assay [2]. Moreover, the pEC50 in assay [3] (Homo sapiens, TF-1, TF-1 cells) is 7.96. Moreover, in assay [4], the EC50 was 0.0426 µM.
Turning to `CN(C(=O)Cn1cc(NC(=O)c2cnn3cccnc23)c(-c2cc(Cl)ccc2OC(F)F)n1)C1(CO)CC1` [Example 293], the pKi in assay [1] is 9.54; in assay [2], 9.42. Moreover, in assay [3] (Homo sapiens, TF-1, TF-1 cells), the pEC50 is 8.52. Further, in assay [4], the EC50 came out at 0.0081 µM.
In the case of `Cc1ccc(OCCN(C)C2CCN(C(=O)Cn3cc(NC(=O)c4cnn5cccnc45)c(-c4cc(Cl)ccc4OC(F)F)n3)CC2)cc1` [Example 110, N-[3-[5-chloro-2-(difluoromethoxy)phenyl]-1-[2-[4-[methyl-[2-(4-methylphenoxy)ethyl]amino]-1-piperidyl]-2-oxo-ethyl]pyrazol-4-yl]pyrazolo[1,5-a]pyrimidine-3-carboxamide], the pKi in assay [1] was 8.98; in assay [2], 8.69. The pEC50 in assay [3] (Homo sapiens, TF-1, TF-1 cells) is 8.05. Also, the EC50 in assay [4] was 0.0875 µM.
For `O=C(Nc1cn(CC2(O)CCCC2)nc1-c1cc(Cl)ccc1OC(F)F)c1cnn2cccnc12` [Example 292, N-[3-[5-chloro-2-(difluoromethoxy)phenyl]-1-[(1-hydroxy-cyclopentyl)methyl]pyrazol-4-yl]pyrazolo[1,5-a]pyrimidine-3-carboxamide], in that order: 9.41, 9.40, 8.85 and 0.021 µM.
For the compound `CC(=O)N1CCC(N2CCC(n3cc(NC(=O)c4c(N)nn5cccnc45)c(-c4cc(Cl)ccc4OC(F)F)n3)CC2)CC1` [Example 144, N-[1-[1-(1-acetyl-4-piperidyl)-4-piperidyl]-3-[5-chloro-2-(difluoromethoxy)phenyl]pyrazol-4-yl]-2-amino-pyrazolo[1,5-a]pyrimidine-3-carboxamide], the pKi was 9.27 in assay [1] and 9.77 in assay [2]. Moreover, the pEC50 in assay [3] (Homo sapiens, TF-1, TF-1 cells) is 7.89. Moreover, the 50% effective concentration (EC50) in assay [4] was 0.0213 µM.
For `CCN(Cc1ccnc(Cl)c1)C(=O)Cn1cc(NC(=O)c2cnn3cccnc23)c(-c2cc(Cl)ccc2OC(F)F)n1` [Example 300, N-[3-[5-chloro-2-(difluoromethoxy)phenyl]-1-[2-[(2-chloro-4-pyridyl)methyl-ethyl-amino]-2-oxo-ethyl]pyrazol-4-yl]pyrazolo[1,5-a]pyrimidine-3-carboxamide], in that order: 9.55, 9.74, 8.40 and 0.0142 µM.
In the case of `CNC(=O)CCCN1CCC(n2cc(NC(=O)c3c(N)nn4cccnc34)c(-c3cc(Cl)ccc3OC(F)F)n2)CC1` [Example 149, 2-amino-N-[3-[5-chloro-2-(difluoromethoxy)phenyl]-1-[1-[4-(methylamino)-4-oxo-butyl]-4-piperidyl]pyrazol-4-yl]pyrazolo[1,5-a]pyrimidine-3-carboxamide], the figures for the pKi in assay [1] and in assay [2] were 9.09 and 9.70, respectively. Moreover, the pEC50 in assay [3] (Homo sapiens, TF-1, TF-1 cells) was 8.08. For the same compound, in assay [4], the EC50 was 0.0198 µM.
For the compound `CN1CCN(C(=O)Cn2cc(NC(=O)c3cnn4cccnc34)c(-c3cc(Cl)ccc3OC(F)F)n2)C[C@H]1CO` [Example 235, N-[3-[5-chloro-2-(difluoromethoxy)phenyl]-1-[2-[(3S)-3-(hydroxymethyl)-4-methyl-piperazin-1-yl]-2-oxo-ethyl]pyrazol-4-yl]pyrazolo[1,5-a]pyrimidine-3-carboxamide], the results for the pKi in assay [1] and in assay [2] were 9.24 and 8.97, respectively. Also, in assay [3] (Homo sapiens, TF-1, TF-1 cells), the pEC50 is 7.67. The EC50 in assay [4] turned out to be 0.114 µM.
The corresponding values for `CN(CCc1ccc(Cl)cc1)C1CCN(C(=O)Cn2cc(NC(=O)c3cnn4cccnc34)c(-c3cc(Cl)ccc3OC(F)F)n2)CC1` [Example 94, N-[3-[5-chloro-2-(difluoromethoxy)phenyl]-1-[2-[4-[2-(4-chlorophenyl)ethyl-methyl-amino]-1-piperidyl]-2-oxo-ethyl]pyrazol-4-yl]pyrazolo[1,5-a]pyrimidine-3-carboxamide] are 8.92, 8.68, 7.37 and 0.0931 µM.
For `O=C(Nc1cn(CC(=O)N2CCC(CO)CC2)nc1-c1cc(Cl)ccc1OC(F)F)c1cnn2cccnc12` [Example 274, N-[3-[5-chloro-2-(difluoromethoxy)phenyl]-1-[2-[4-(hydroxymethyl)-1-piperidyl]-2-oxo-ethyl]pyrazol-4-yl]pyrazolo[1,5-a]pyrimidine-3-carboxamide], in that order: 9.47, 9.04, 8.49 and 0.0131 µM.
As to `N#CCCNC1CCN(C(=O)Cn2cc(NC(=O)c3cnn4cccnc34)c(-c3cc(Cl)ccc3OC(F)F)n2)CC1` [Example 87, N-[3-[5-chloro-2-(difluoromethoxy)phenyl]-1-[2-[4-(2-cyanoethylamino)-1-piperidyl]-2-oxo-ethyl]pyrazol-4-yl]pyrazolo[1,5-a]pyrimidine-3-carboxamide], the pKi is 9.40 in assay [1] and 9.14 in assay [2]. Further, the pEC50 in assay [3] (Homo sapiens, TF-1, TF-1 cells) is 7.81. For the same compound, the EC50 in assay [4] amounted to 0.014 µM.
Turning to `CN(CC1(C)COC1)C1CCN(c2nc(-c3cc(Cl)ccc3OC(F)F)c(NC(=O)c3cnn4cccnc34)s2)CC1` [Example 200, N-[4-[5-chloro-2-(difluoromethoxy)phenyl]-2-[4-[methyl-[(3-methyloxetan-3-yl)methyl]amino]-1-piperidyl]thiazol-5-yl]pyrazolo[1,5-a]pyrimidine-3-carboxamide], the pKi in assay [1] was 8.91; in assay [2], 8.97. Also, in assay [3] (Homo sapiens, TF-1, TF-1 cells), the pEC50 is 8.23. Besides, the EC50 in assay [4] stood at 0.0254 µM.
`NCCn1cc(NC(=O)c2c(N)nn3cccnc23)c(-c2cc(Cl)ccc2OC(F)F)n1` [Example 295, 2-amino-N-[1-(2-aminoethyl)-3-[5-chloro-2-(difluoromethoxy)phenyl]pyrazol-4-yl]pyrazolo[1,5-a]pyrimidine-3-carboxamide]: the pKi is 9.31 in assay [1] and 9.68 in assay [2]. Besides, in assay [3] (Homo sapiens, TF-1, TF-1 cells), the pEC50 is 8.26. The EC50 in assay [4] was 0.0345 µM.
With `CN1CC[C@@H]2[C@@H](CCN2C(=O)Cn2cc(NC(=O)c3cnn4cccnc34)c(-c3cc(Cl)ccc3OC(F)F)n2)C1` [Example 45, N-[1-[2-[(3aS,7aR)-5-methyl-3,3a,4,6,7,7a-hexahydro-2H-pyrrolo[3,2-c]pyridin-1-yl]-2-oxo-ethyl]-3-[5-chloro-2-(difluoromethoxy)phenyl]pyrazol-4-yl]pyrazolo[1,5-a]pyrimidine-3-carboxamide], the figures for the pKi in assay [1] and in assay [2] were 9.13 and 8.75, respectively. Further, in assay [3] (TF-1 cells), the pEC50 is 8.15. Also, the EC50 in assay [4] was 0.0245 µM.
`O=C(Nc1cn(CC(=O)N2C[C@H]3CN(CC4CCCCC4)C[C@H]3C2)nc1-c1cc(Cl)ccc1OC(F)F)c1cnn2cccnc12` [Example 52, N-[1-[2-[(3aR,6aS)-2-(cyclohexylmethyl)-1,3,3a,4,6,6a-hexahydropyrrolo[3,4-c]pyrrol-5-yl]-2-oxo-ethyl]-3-[5-chloro-2-(difluoromethoxy)phenyl]pyrazol-4-yl]pyrazolo[1,5-a]pyrimidine-3-carboxamide]: the pKi in assay [1] was 9.19; in assay [2], 9.21. The pEC50 in assay [3] (Homo sapiens, TF-1, TF-1 cells) was 8.27. The EC50 in assay [4] was 0.0388 µM.
In the case of `O=C(Nc1cn(CC(=O)N2C[C@H]3CN(CC4CCC4)C[C@H]3C2)nc1-c1cc(Cl)ccc1OC(F)F)c1cnn2cccnc12` [Example 40, N-[1-[2-[(3aR,6aS)-2-(cyclobutylmethyl)-1,3,3a,4,6,6a-hexahydropyrrolo[3,4-c]pyrrol-5-yl]-2-oxo-ethyl]-3-[5-chloro-2-(difluoromethoxy)phenyl]pyrazol-4-yl]pyrazolo[1,5-a]pyrimidine-3-carboxamide], the pKi is 9.19 in assay [1] and 9.21 in assay [2]. In addition, the pEC50 in assay [3] (Homo sapiens, TF-1, TF-1 cells) was 8.42. Moreover, the EC50 in assay [4] was 0.128 µM.
